The values that follow come from patent US11098090B2, “Mycobacteria tuberculosis chaperonin 60.1 peptides and uses thereof” (Revolo Biotherapeutics Limited, priority 2017, dated 2021).

“Also recorded” adds a separate entry of the source. Where no end group is shown, it is not given here.

In data set [1] the test system is LPS induced lung neutrophil influx. The experiment in a line: LPS mouse model of lung inflammation (BAL neutrophil count). It counts as in vivo. Conditions: for efficacy against LPS induced lung neutrophil influx: 50 pg/mouse i.v.
Data set [2] deals with recruitment of eosinophils. To be noted: animal model of allergic airway inflammation; from WO2009106819; cited from earlier work.
The nature of data set [3]: Plasma stability at 37° C., mouse plasma. It counts as in vitro ADME. The procedure:
(§1) Plasma Stability in Mouse, Rat and Human Plasma at 37° C.
(§2) Plasma: mouse (C57 Black 6 Male), rat (Sprague Dawley) and human containing heparin as an anti-coagulant.
(§3) Plasma samples in duplicate were incubated with peptide at 3 μM in a 600 μl volume at 37° C. with shaking. 50 μl aliquots were withdrawn after 2, 5, 30, 60 and 120 mins and quenched into 150 μl of ice-cold methanol containing the internal standard (tolbutamide). Samples were stored at −20° C. for 2 hours to allow protein precipitation. Samples were then centrifuged at 2500×g and the resulting supernatants transferred to a 96 well plate for LC-MS/MS analysis. Thalf was calculated in all matrices for each peptide.

Data set [4] is described as follows: Plasma stability at 37° C., rat plasma. It counts as in vitro ADME. On the procedure: as §1, §2, §3
Data set [5] is described as follows: Plasma stability at 37° C., human plasma. It counts as in vitro ADME. The procedure:
as §1, §2, §3

Data set [6] can be described thus: Plasma stability, overall statements for mouse, rat and human plasma. It counts as in vitro ADME. To be noted: for plasma stability / half-life (Th) compared with parent peptide SEQ ID NO: 17: rat and human plasma. On the procedure:
as §1, §2, §3

Setting [7] is: Table 4, read-out: Plasma half life Mouse.
[8] abbreviates: Table 4, read-out: Plasma half life Rat.
The mark [9] stands for this setting: Table 4, read-out: Plasma half life Man.
The mark [10] stands for this setting: Table 7, same conditions as Example 3, read-out: Plasma half life Mouse.
Setting [11] is: Table 7, same conditions as Example 3, read-out: Plasma half life Rat.
Setting [12] is: Table 7, same conditions as Example 3, read-out: Plasma half life Man.

As to “H-DGSVVVNKVSELPAGHGLNVNTLSYGDLAAD [SEQ ID NO: 1, reference compound]”, the “inhibition of LPS induced lung neutrophil influx” value in data set [1] (dosed intravenously immediately prior to LPS challenge) is recorded as “significant inhibition; also recorded: only demonstrates efficacy when dosed immediately prior to LPS challenge”. Also, the “activity against LPS induced lung neutrophil influx” value in data set [1] (i.v., given at earlier (FIG. 1) or later (FIG. 4) time points than LPS challenge) is on record as “looses its activity”. Besides, the recruitment of eosinophils result in data set [2] is reported as “significantly reduce the recruitment of eosinophils”.

As to `CC(C)C[C@H](NC(=O)CNC(=O)[C@@H](N)Cc1c[nH]cn1)C(=O)N[C@@H](CC(N)=O)C(=O)N[C@H](C(=O)N[C@@H](CC(N)=O)C(=O)N[C@H](C(=O)N[C@@H](CC(C)C)C(=O)N[C@@H](CO)C(=O)N[C@@H](Cc1ccc(O)cc1)C(=O)NCC(=O)N[C@@H](CC(=O)O)C(N)=O)[C@@H](C)O)C(C)C` [SEQ ID NO: 17, HGLNVNTLSYGD-NH2], the “effect on LPS induced lung neutrophil influx (number of neutrophils)” value in data set [1] (different doses (0.5, 5 or 50 pg/mouse)) is “reduction in the number of neutrophils”. Besides, the half-life came to 0.333 h in data set [3] (Table 3, 37° C., peptide 3 μM, read-out: Plasma Half Life (Th) Mouse); 0.717 h in data set [4] (Table 3, 37° C., peptide 3 μM, read-out: Plasma Half Life (Th) Rat); 1.2 h in data set [5] (Table 3, 37° C., peptide 3 μM, read-out: Plasma Half Life (Th) Man).

Consider “H-GLNVNTLSYGDLAAD [SEQ ID NO: 23, GLNVNTLSYGDLAAD, reference compound]”, for which the half-life is 1.03 h in data set [3] (setting [7]), > 5.13 h in data set [4] (setting [8]) and > 5.62 h in data set [5] (setting [9]).

For `CC(C)C[C@H](NC(=O)CNC(=O)[C@H](N)Cc1c[nH]cn1)C(=O)N[C@@H](CC(N)=O)C(=O)N[C@H](C(=O)N[C@@H](CC(N)=O)C(=O)N[C@H](C(=O)N[C@@H](CC(C)C)C(=O)N[C@@H](CO)C(=O)N[C@@H](Cc1ccc(O)cc1)C(=O)NCC(=O)N[C@@H](CC(=O)O)C(N)=O)[C@@H](C)O)C(C)C` [SEQ ID NO: 16, hGLNVNTLSYGD-NH2], the half-life in data set [3] (setting [10]) stood at 0.583 h; in data set [4] (setting [11]), 3.33 h; in data set [5] (setting [12]), 1.85 h.

For the molecule `CC(=O)N[C@H](CC(=O)O)C(=O)NCC(=O)N[C@H](Cc1ccc(O)cc1)C(=O)N[C@H](CO)C(=O)N[C@H](CC(C)C)C(=O)N[C@@H](C(=O)N[C@H](CC(N)=O)C(=O)N[C@@H](C(=O)N[C@H](CC(N)=O)C(=O)N[C@H](CC(C)C)C(=O)NCC(=O)N[C@H](Cc1c[nH]cn1)C(N)=O)C(C)C)[C@H](C)O` [SEQ ID NO: 19, Ac-dGysltnvnlGh-NH2], the “plasma stability / half-life (Th) compared with parent peptide SEQ ID NO: 17” value in data set [6] is “enhanced plasma stability”. Moreover, the half-life in data set [3] (setting [10]), in data set [4] (setting [11]) and in data set [5] (setting [12]) was > 6 h throughout.

With `CC(C)C[C@H](NC(=O)CNC(=O)[C@@H](N)Cc1c[nH]cn1)C(=O)N[C@@H](CC(N)=O)C(=O)N[C@H](C(=O)N[C@@H](CC(N)=O)C(=O)N[C@H](C(=O)N[C@@H](CC(C)C)C(=O)N[C@@H](CO)C(=O)N[C@@H](Cc1ccc(O)cc1)C(=O)NCC(=O)N[C@H](CC(=O)O)C(N)=O)[C@@H](C)O)C(C)C` [SEQ ID NO: 15, HGLNVNTLSYGd-NH2], the results for the half-life in data set [3] (setting [10]), in data set [4] (setting [11]) and in data set [5] (setting [12]) were 0.65 h, 3.03 h and 1.4 h, respectively.

For the molecule “H-DGSVVVNKVSEL-NH2 [SEQ ID NO: 3, DGSVVVNKVSEL-NH2]”, the “efficacy against LPS induced lung neutrophil influx” value in data set [1] (dosed up to 60 mins prior to LPS challenge (FIG. 2)) and in data set [1] (dosed up to 120 mins post LPS challenge (FIG. 3)) was “efficacious” in each case. Also, in data set [1] (dosed intravenously), the “efficacy in the LPS mouse model” value is on record as “effective”.

In the case of `CC(C)C[C@H](NC(=O)CNC(=O)[C@H](N)Cc1c[nH]cn1)C(=O)N[C@@H](CC(N)=O)C(=O)N[C@H](C(=O)N[C@@H](CC(N)=O)C(=O)N[C@H](C(=O)N[C@@H](CC(C)C)C(=O)N[C@@H](CO)C(=O)N[C@@H](Cc1ccc(O)cc1)C(=O)NCC(=O)N[C@H](CC(=O)O)C(N)=O)[C@@H](C)O)C(C)C` [SEQ ID NO: 14, hGLNVNTLSYGd-NH2], the half-life came to 0.833 h in data set [3] (setting [10]), 2.55 h in data set [4] (setting [11]) and 2.58 h in data set [5] (setting [12]).

In the case of `CC(=O)N[C@H](Cc1c[nH]cn1)C(=O)NCC(=O)N[C@H](CC(C)C)C(=O)N[C@H](CC(N)=O)C(=O)N[C@@H](C(=O)N[C@H](CC(N)=O)C(=O)N[C@@H](C(=O)N[C@H](CC(C)C)C(=O)N[C@H](CO)C(=O)N[C@H](Cc1ccc(O)cc1)C(=O)NCC(=O)N[C@H](CC(=O)O)C(N)=O)[C@H](C)O)C(C)C` [SEQ ID NO: 20, Ac-hGlnvntlsyGd-NH2], in data set [6], the “plasma stability / half-life (Th) compared with parent peptide SEQ ID NO: 17” value is listed as “enhanced plasma stability”. Also, the half-life in data set [3] (setting [10]) was > 6 h; in data set [4] (setting [11]), 3.03 h; in data set [5] (setting [12]), > 6 h.

`CC(C)C[C@@H]1NC(=O)CNC(=O)[C@H](Cc2c[nH]cn2)NC(=O)[C@H](CC(=O)O)NC(=O)CNC(=O)[C@H](Cc2ccc(O)cc2)NC(=O)[C@H](CO)NC(=O)[C@H](CC(C)C)NC(=O)[C@H]([C@@H](C)O)NC(=O)[C@H](CC(N)=O)NC(=O)[C@H](C(C)C)NC(=O)[C@H](CC(N)=O)NC1=O` [SEQ ID NO: 25, cyclic-HGLNVNTLSYGD-]: the “plasma stability / half-life (Th) compared with parent peptide SEQ ID NO: 17” value in data set [6] is “did not improve plasma stability”. Further, the results for the half-life in data set [3] (setting [10]), in data set [4] (setting [11]) and in data set [5] (setting [12]) were 0.167 h, 0.35 h and 0.75 h, respectively.

Consider H-SELPAGHGLNVNTLSYGDLAAD [SEQ ID NO: 4], for which the “plasma half-life compared with fragment 3 (SEQ ID NO: 5)” value in data set [6] (rat and human plasma (Table 5 vs Table 4)) is recorded as “superior half-life”. In addition, the “in vivo efficacy in the mouse LPS lung inflammation model” value in data set [1] (0.5, 5 and 500 pg/dose (FIG. 7)) was “maintained in vivo efficacy”. Moreover, the half-life is > 6 h in data set [3] (Table 5, read-out: Plasma half-life Mouse); > 6 h in data set [4] (Table 5, read-out: Plasma half-life Rat); > 6 h in data set [5] (Table 5, read-out: Plasma half-life Man).

As to “H-SELPAGHGLNVNTLS [SEQ ID NO: 5, SELPAGHGLNVNTLS]”, the figures for the half-life in data set [3] (setting [7]), in data set [4] (setting [8]) and in data set [5] (setting [9]) were 0.2 h, 1.32 h and 1.85 h, respectively.

As a reminder, the half-life is the time needed for the level to fall by half in the phase considered.
